Results as given in patent US10870647B2, “Imidazopyridine derivative, method for preparing same, and pharmaceutical composition containing same as active ingredient for preventing or treating cancer” (DAEGU-GYEONGBUK MEDICAL INNOVATION FOUNDATION, priority 2016, dated 2020).

Assays:
Test in all cases: Kinase selectivity, scanMAX Kinase assay panel (DiscoverX), % control at 1 uM
Assay type in all cases: binding
[1] = target: T1, scanMAX Kinase assay panel (Homo sapiens, UniProt Q6ZN16); settings: MAP3K15; 1 uM; read-out: Percent Control (%)
T1 construct: purchased DiscoverX
T1 sequence (Q6ZN16 1-1313): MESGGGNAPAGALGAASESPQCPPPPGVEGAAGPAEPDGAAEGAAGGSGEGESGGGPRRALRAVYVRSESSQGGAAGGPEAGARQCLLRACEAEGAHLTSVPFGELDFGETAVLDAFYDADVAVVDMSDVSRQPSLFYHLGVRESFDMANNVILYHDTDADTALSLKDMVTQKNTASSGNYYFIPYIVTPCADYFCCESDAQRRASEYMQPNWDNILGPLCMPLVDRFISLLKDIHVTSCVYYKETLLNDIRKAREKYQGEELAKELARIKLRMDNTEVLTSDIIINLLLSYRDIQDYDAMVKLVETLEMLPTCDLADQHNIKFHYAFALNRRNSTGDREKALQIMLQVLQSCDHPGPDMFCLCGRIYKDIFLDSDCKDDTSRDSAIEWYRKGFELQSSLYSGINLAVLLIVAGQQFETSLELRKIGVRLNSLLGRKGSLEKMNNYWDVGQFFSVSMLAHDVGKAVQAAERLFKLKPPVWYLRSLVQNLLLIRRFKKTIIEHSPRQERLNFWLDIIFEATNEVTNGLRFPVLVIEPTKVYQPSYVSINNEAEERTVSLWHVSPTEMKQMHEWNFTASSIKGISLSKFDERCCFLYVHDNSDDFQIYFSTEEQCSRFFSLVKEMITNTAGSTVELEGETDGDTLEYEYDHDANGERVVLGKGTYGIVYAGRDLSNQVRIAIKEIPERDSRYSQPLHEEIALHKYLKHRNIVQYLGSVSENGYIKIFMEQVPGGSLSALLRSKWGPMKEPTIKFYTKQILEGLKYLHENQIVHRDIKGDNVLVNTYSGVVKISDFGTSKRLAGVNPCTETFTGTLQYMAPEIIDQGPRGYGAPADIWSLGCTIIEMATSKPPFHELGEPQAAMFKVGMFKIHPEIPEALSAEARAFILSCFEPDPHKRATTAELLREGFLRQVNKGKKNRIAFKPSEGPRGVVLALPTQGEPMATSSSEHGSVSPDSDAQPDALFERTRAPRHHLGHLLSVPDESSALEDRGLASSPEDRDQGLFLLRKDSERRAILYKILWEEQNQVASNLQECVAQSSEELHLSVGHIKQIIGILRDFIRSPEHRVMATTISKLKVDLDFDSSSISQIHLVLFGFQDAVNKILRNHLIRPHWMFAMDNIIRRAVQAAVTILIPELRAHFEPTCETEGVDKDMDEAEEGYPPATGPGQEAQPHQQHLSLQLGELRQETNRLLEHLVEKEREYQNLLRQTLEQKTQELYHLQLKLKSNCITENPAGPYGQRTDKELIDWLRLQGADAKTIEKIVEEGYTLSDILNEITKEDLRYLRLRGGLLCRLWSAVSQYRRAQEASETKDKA
Summary of the method: (§1)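 Activity was called for kinases showing % control under 35, calculated from compound signal relative to positive and negative controls. Each compound screened at 1 uM against the DiscoverX scanMAX panel.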

[2] = target: T2, scanMAX Kinase assay panel (Homo sapiens, UniProt O15197); settings: EPHB6; 1 uM; read-out: Percent Control (%)
T2 construct: purchased DiscoverX
T2 sequence (O15197 32-1021): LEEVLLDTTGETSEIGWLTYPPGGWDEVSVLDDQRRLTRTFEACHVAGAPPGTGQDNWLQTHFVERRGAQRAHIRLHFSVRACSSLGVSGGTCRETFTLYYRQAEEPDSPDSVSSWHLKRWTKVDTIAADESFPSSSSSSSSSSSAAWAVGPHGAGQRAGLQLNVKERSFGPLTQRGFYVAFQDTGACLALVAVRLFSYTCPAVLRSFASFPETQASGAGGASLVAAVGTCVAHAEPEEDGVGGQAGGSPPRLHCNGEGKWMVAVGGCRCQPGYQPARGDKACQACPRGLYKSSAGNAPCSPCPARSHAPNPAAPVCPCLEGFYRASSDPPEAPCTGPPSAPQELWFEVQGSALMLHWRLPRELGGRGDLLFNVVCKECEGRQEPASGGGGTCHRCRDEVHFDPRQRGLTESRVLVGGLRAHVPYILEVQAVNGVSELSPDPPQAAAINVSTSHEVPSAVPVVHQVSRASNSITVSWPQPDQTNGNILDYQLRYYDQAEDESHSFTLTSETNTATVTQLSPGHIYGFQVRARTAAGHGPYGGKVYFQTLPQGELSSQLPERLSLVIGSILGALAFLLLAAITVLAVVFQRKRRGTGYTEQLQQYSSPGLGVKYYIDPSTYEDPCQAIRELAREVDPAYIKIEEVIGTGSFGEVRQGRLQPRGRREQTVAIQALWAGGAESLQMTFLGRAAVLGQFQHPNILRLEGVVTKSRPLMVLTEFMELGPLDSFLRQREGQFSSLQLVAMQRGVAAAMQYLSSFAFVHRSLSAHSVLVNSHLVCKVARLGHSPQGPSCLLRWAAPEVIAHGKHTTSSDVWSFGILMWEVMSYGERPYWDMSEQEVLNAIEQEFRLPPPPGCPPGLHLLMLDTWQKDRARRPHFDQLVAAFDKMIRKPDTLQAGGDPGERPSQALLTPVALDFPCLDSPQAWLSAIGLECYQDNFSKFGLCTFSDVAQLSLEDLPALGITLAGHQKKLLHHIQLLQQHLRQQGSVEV
Summary of the method: as §1

[3] = target: T3, scanMAX Kinase assay panel (Homo sapiens, UniProt P21127); settings: CDC2L1; 1 uM; read-out: Percent Control (%)
T3 construct: purchased DiscoverX
Summary of the method: as §1

[4] = target: T4, scanMAX Kinase assay panel (Homo sapiens, UniProt P48729); settings: CSNK1A1; 1 uM; read-out: Percent Control (%)
T4 construct: purchased DiscoverX
Summary of the method: as §1

[5] = target: T5, scanMAX Kinase assay panel (Homo sapiens, UniProt P53667); settings: LIMK1; 1 uM; read-out: Percent Control (%)
T5 construct: purchased DiscoverX
Summary of the method: as §1

T4 sequence (P48729 whole entry): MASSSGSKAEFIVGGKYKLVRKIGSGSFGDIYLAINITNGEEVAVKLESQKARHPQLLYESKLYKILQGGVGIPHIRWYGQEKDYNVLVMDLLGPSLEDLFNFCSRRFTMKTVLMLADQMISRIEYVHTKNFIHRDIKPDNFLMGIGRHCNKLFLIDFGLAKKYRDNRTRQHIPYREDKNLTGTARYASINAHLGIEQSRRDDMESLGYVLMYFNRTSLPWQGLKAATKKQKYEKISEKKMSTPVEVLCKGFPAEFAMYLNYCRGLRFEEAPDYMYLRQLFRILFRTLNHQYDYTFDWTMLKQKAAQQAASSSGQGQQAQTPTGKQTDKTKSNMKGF
T3 sequence (P21127 whole entry): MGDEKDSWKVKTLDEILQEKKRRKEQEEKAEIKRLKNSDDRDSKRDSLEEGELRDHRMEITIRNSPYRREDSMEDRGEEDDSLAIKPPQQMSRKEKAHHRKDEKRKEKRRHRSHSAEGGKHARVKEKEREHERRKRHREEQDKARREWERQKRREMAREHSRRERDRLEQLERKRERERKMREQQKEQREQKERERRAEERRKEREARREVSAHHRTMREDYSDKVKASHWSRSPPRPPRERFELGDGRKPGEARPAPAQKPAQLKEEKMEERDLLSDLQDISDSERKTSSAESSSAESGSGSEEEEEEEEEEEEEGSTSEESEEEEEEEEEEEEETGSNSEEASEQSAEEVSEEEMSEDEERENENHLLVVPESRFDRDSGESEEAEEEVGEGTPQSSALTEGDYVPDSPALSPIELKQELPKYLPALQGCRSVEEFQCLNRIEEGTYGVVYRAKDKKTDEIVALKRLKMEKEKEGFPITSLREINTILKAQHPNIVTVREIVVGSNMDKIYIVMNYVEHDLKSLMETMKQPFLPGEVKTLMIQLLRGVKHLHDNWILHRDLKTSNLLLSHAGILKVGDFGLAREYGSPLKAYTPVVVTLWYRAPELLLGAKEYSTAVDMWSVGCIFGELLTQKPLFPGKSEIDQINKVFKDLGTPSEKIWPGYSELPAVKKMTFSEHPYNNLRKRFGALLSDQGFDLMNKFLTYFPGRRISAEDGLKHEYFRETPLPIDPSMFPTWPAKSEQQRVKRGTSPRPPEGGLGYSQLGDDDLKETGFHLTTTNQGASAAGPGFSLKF
T5 sequence (P53667 whole entry): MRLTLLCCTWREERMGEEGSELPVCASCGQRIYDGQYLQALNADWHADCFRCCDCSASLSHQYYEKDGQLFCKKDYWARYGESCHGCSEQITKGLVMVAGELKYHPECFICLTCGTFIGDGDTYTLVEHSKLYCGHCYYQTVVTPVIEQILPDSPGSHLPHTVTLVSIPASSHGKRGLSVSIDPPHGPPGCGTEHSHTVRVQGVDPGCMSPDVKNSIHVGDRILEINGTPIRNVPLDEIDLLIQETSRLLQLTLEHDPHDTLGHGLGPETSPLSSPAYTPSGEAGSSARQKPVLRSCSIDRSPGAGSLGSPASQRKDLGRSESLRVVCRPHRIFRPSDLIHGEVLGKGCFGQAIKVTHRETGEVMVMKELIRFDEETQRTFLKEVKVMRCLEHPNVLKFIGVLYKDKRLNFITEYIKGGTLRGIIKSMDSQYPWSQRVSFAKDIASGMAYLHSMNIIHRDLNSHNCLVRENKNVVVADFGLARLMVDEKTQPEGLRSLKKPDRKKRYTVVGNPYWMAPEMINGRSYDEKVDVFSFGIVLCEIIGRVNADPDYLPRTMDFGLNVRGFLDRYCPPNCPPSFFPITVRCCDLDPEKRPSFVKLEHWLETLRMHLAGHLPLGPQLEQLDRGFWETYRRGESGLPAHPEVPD

SMILES	remaining binding at 1 µM [1] [%]	remaining binding at 1 µM [2] [%]	remaining binding at 1 µM [3] [%]	remaining binding at 1 µM [4] [%]	remaining binding at 1 µM [5] [%]
Cc1ccc(NC(=O)C2(C(=O)Nc3ccc(F)cc3)CC2)cc1C#Cc1cnc2c(Nc3cnn(C(C)C)c3)cccn12 [Example 78]	98	0	100	85	100
Cc1cn(-c2cc(NC(=O)c3ccc(C)c(C#Cc4cnc5c(Nc6cnn(C)c6)cccn45)c3)cc(C(F)(F)F)c2)cn1 [Example 12, 4-methyl-N-(3-(4-methyl-1H-imidazol-1-yl)-5-(trifluoromethyl)phenyl)-3-((8-((1-methyl-1H-pyrazol-4-yl)amino)imidazo[1,2-a]pyridin-3-yl)ethynyl)benzamide]	100	0	80	76	38
Cc1ccc(C(=O)Nc2ccc(CN3CCN(C)CC3)c(C(F)(F)F)c2)cc1C#Cc1cnc2c(Nc3cnn(C)c3)cccn12 [Example 1, 4-methyl-3-((8-((1-methyl-1H-pyrazol-4-yl)amino)imidazo[1,2-a]pyridin-3-yl)ethynyl)-N-(4-((4-methylpiperazin-1-yl)methyl)-3-(trifluoromethyl)phenyl)benzamide]	72	1	20	67	4
